Data set [1] relates to serum proinflammatory cytokines and chemokines in response to ceDNA. In words: In vivo cytokine/chemokine panel after ceDNA (Construct A) dosing. The arrangement: species or system mice. The following applies: for serum IP-10 level: repeat experiment; for cytokines expression after ceDNA dosing: LNP: Construct A at 0.2 mg/Kg. How it is done: The immunosuppressant selected for initial in vivo cytokine/chemokine panel assays were afatinib, brigatinib, dacomitinib, dasatinib, saracatinib, fostamatinib, cerdulatinib, ruxolitinib, and cobimetinib. […] The high and low dose concentrations immunosuppressants are as follows: afatinib (H: 200 mg/kg/day; L: 25 mg/kg/day), brigatinib (H: 50 mg/kg/day; L: 10 mg/kg/day), dacomitinib (H: 30 mg/kg/day; L: 10 mg/kg/day), dasatinib (H: 30 mg/kg/day; L: 10 mg/kg/day), saracatinib (H: 50 mg/kg/day; L: 10 mg/kg/day), fostamatinib (H: 500 mg/kg/day; L: 100 mg/kg/day), cerdulatinib (H: 30 mg/kg/day; L: 5 mg/kg/day), ruxolitinib (H: 300 mg/kg/day; L: 60 mg/kg/day) and cobimetinib (H: 10 mg/kg/day; L: 3 mg/kg/day). Formulations were mixed by pipetting prior to administration to distribute particulates of oral gavage suspension. TKI or vehicle for Groups 3-24 were dosed on Days -2, -1, 0 and 1 by oral gavage at 10 mL/kg. TKI for Group 25 were dosed on Days -2, -1, 0 and 1 by oral gavage at 20 mL/kg. TKI for Group 26 was dosed on Days -2, -1, 0 and 1 by intraperitoneal (IP) administration at 20 mL/kg. […] Otherwise, TKIs were administered at approximately the same time each day ([…] dosed at 0.2 mg/kg on Day 0 for all experimental groups by intravenous administration via lateral tail vein. Animals were monitored continuously while under anesthesia, during recovery and until mobile. […] Polycytidylic acid potassium salt (PolyC) and […] (Construct A) were used as controls. […] Body weights for all animal were recorded.

Data set [2] has as its system IRF-inducible luciferase reporter in RAW-ISG cells. In words: IFN reporter assay in RAW-ISG cells. It is filed as cell-based, murine. Conditions: for inhibitory effects on murine ISG system / induction of IRF: 0.1 μM, 1.0 μM and 10 μM, ceDNA. As to the method: Finally, IFN reporter assays were conducted in RAW-ISG cells. RAW-ISG cells are generated from the murine macrophage cell line by stable integration of an interferon regulatory factor (IRF)-inducible luciferase reporter construct. […] Another potent TKI compound selected for this assay was BMS-986165 which is a known antagonist of TYK2.
A general note: Reporter assays use an easily measured gene product as a stand-in for the process of interest.

Data set [3] deals with luciferase expression of ceDNA (Construct A). In words: In-life imaging (IVIS) of ceDNA luciferase expression. Conditions: day 6; compared among TKI groups. It is filed as in vivo, mice. As to the method:
Expression levels of ceDNA as detected by luciferase (IVIS for luciferase) was measured at day 6, 14, 21, 28, and 35 in all groups (FIG. 8). Polycytidylic acid potassium salt (PolyC) and […] ceDNA (Construct A) were used as controls. Both polyC and Construct A were formulated in LNP and used as controls for in groups in which no ceDNA was dosed to evaluate the effect of LNPs. Body weights for all animal were recorded.

Data set [4] in a line: In vivo tolerability and body weight with TKI and ceDNA. The arrangement: species or system mice. How it is done: The immunosuppressant selected for initial in vivo cytokine/chemokine panel assays were afatinib, brigatinib, dacomitinib, dasatinib, saracatinib, fostamatinib, cerdulatinib, ruxolitinib, and cobimetinib. […] The high and low dose concentrations immunosuppressants are as follows: afatinib (H: 200 mg/kg/day; L: 25 mg/kg/day), brigatinib (H: 50 mg/kg/day; L: 10 mg/kg/day), dacomitinib (H: 30 mg/kg/day; L: 10 mg/kg/day), dasatinib (H: 30 mg/kg/day; L: 10 mg/kg/day), saracatinib (H: 50 mg/kg/day; L: 10 mg/kg/day), fostamatinib (H: 500 mg/kg/day; L: 100 mg/kg/day), cerdulatinib (H: 30 mg/kg/day; L: 5 mg/kg/day), ruxolitinib (H: 300 mg/kg/day; L: 60 mg/kg/day) and cobimetinib (H: 10 mg/kg/day; L: 3 mg/kg/day). Formulations were mixed by pipetting prior to administration to distribute particulates of oral gavage suspension. TKI or vehicle for Groups 3-24 were dosed on Days -2, -1, 0 and 1 by oral gavage at 10 mL/kg. TKI for Group 25 were dosed on Days -2, -1, 0 and 1 by oral gavage at 20 mL/kg. TKI for Group 26 was dosed on Days -2, -1, 0 and 1 by intraperitoneal (IP) administration at 20 mL/kg. […] Otherwise, TKIs were administered at approximately the same time each day ([…] dosed at 0.2 mg/kg on Day 0 for all experimental groups by intravenous administration via lateral tail vein. […] Polycytidylic acid potassium salt (PolyC) and […] […] Body weights for all animal were recorded.

In the next data set the test system is immune response to ceDNA. The data set is classed as in vivo, mice. The following applies: −0.5 h and 5 h regimen compared to −48 hr, −24 h, −1.5 h and 24 h regimen; 300 mg/kg. The source says: FIG. 14 depicts two different dosing time arrangements of TKI treatment. […]. […]
For data set [5], the system named is immune response to ceDNA (Construct A: hAAT-Luciferase). Description: ceDNA dose escalation study with TKI. It is filed as in vivo. The following applies: 2 mg/kg ceDNA formulated in LNP; ruxolitinib 300 mg/kg. How it is done: An in vivo study with dose escalation of ceDNA was conducted to evaluate the effect of ceDNA at a high dose in the presence of the TKI (ruxolitinib at a high dose of 300 mg/kg and fostamatinib at a high dose of 500 mg/kg). In this study, four experimental groups were dosed with increasing doses of 0.2 mg/kg, 0.5 mg/kg, 1 mg/kg, or 2 mg/kg of ceDNA (Construct A: hAAT-Luciferase) formulated in LNPs.

The test system of the next data set is THP1-ISG cells. Description: THP1-ISG cell viability assay (ATP activity and LDH release). Conditions: 10 μM, 1.0 μM and 0.1 μM; 24 hours. (In general: LDH in the medium is a marker of cell lysis.)
Where [6] appears, read: 0.2 mg/kg ceDNA, blood 6 hours post dose.
The mark [7] stands for this setting: high dose of TKI with Construct A:LNP vehicle.

“Also recorded” adds a separate entry of the source. Where a name gives a salt, the structure may show the parent alone.

`COc1cc(Nc2ncc(F)c(Nc3ccc4c(n3)N(COP(=O)(O)O)C(=O)C(C)(C)O4)n2)cc(OC)c1OC` [fostamatinib, Fostamatinib/ Fostamatinib disodium]: in data set [1] (0.2 mg/kg ceDNA), the “suppressing cytokines and chemokine levels” value is on record as “stood out”; the “type I and type II IFNs responses” value was “effectively attenuated”; the “serum IP-10 level” value is reported as “successfully exerted immunosuppressive effects”. In data set [1] (setting [6]), the “serum interferon-α (IFN-α) level” value is on record as “successfully exerted immunosuppressive effects”, the “serum interferon-γ (IFN-γ) level” value is “successfully exerted immunosuppressive effects”, the “serum interleukin-6 (IL-6) level” value is “successfully exerted immunosuppressive effects” and the “serum interleukin-18 (IL-18) level” value is recorded as “successfully exerted immunosuppressive effects”. In addition, the “serum tumor necrosis factor-α (TNF-α) level” value in data set [1] (setting [6]) is listed as “successfully exerted immunosuppressive effects”. For the same compound, the “cytokines expression after ceDNA dosing” value in data set [1] was “drastically reduce”. Also, in data set [2], the “inhibitory effects, ranking among more than 30 compounds tested” value is recorded as “most significant inhibitory effects” and the “inhibitory effects on murine ISG system / induction of IRF” value is listed as “significant inhibitory effects”.
As for `N#CC[C@H](C1CCCC1)n1cc(-c2ncnc3[nH]ccc23)cn1` [ruxolitinib, Ruxolitinib/ Ruxolitinib phosphate/ S-ruxolitinib], the “ceDNA transgene expression levels” value in data set [3] was “highest level”. Further, in data set [4] (TKI with 0.2 mg/kg ceDNA), the body weight change entry is reported as “a certain level of weight gains”. In addition, the immunosuppression entry in the data set on immune response to ceDNA is “improved immunosuppression”. Moreover, the tolerability entry in data set [5] is “well tolerated”. Besides, in data set [1] (0.2 mg/kg ceDNA), the “serum MCP-1 level” value is recorded as “significant reduction”, the “serum MIP-1α (CCL3) level” value is recorded as “significant reduction”, the “serum MIP-1β (CCL4) level” value was “significant reduction” and the “serum Rantes (CCL5) level” value is recorded as “significant reduction”. Also, in data set [1] (0.2 mg/kg ceDNA), the “suppressing cytokines and chemokine levels” value is “stood out”; the “type I and type II IFNs responses” value was “effectively attenuated”; the “serum IP-10 level” value was “successfully exerted immunosuppressive effects”. For the same compound, in data set [1] (setting [6]), the “serum interferon-α (IFN-α) level” value is listed as “significant reductions; also recorded: successfully exerted immunosuppressive effects”, the “serum interferon-γ (IFN-γ) level” value is “significant reductions; also recorded: successfully exerted immunosuppressive effects”, the “serum interleukin-6 (IL-6) level” value is recorded as “significant reductions; also recorded: successfully exerted immunosuppressive effects” and the “serum interleukin-18 (IL-18) level” value was “significant reductions; also recorded: successfully exerted immunosuppressive effects”. Also, in data set [1] (setting [6]), the serum level result was “significant reductions” and the “serum tumor necrosis factor-α (TNF-α) level” value is on record as “significant reductions; also recorded: successfully exerted immunosuppressive effects”. Besides, in data set [1], the “cytokines expression after ceDNA dosing” value is “drastically reduce”. In data set [1] (setting [7]), the “serum IFN-α level” value is given as “no detectable”, the “serum IFN-γ level” value is recorded as “no detectable” and the “serum IL-6 level” value is listed as “no detectable”. In data set [2], the “inhibitory effects, ranking among more than 30 compounds tested” value is given as “most significant inhibitory effects” and the “inhibitory effects on murine ISG system / induction of IRF” value is reported as “significant inhibitory effects”.
In the case of `Cl.Cn1cc(-c2nc(N[C@@H]3CCCC[C@@H]3N)c(F)c3c2C(=O)NC3)cn1` [TAK-659], the “toxicity in vitro (ATP activity)” value with THP1-ISG cells is listed as “mostly non-toxic”.
On to `CN(C)C/C=C/C(=O)Nc1cc2c(Nc3ccc(F)c(Cl)c3)ncnc2cc1O[C@H]1CCOC1` [afatinib, Afatinib/ Afatinib Dimaleate], for which, in data set [4] (with ceDNA, particularly at a high dose), the body loss is recorded as 7-8%.
For `c1cn2cc(-c3ccc4cn[nH]c4c3)nc(Nc3ccc(N4CCOCC4)cc3)c2n1` [entoplestinib, Entosplestinib], in the data set with THP1-ISG cells, the “toxicity in vitro (ATP activity)” value is “mostly non-toxic”.
In the case of `CCN(CC)CCNC(=O)c1c(C)[nH]c(/C=C2\C(=O)Nc3ccc(F)cc32)c1C` [sunitinib, Sunitinib], the “toxicity in vitro (ATP activity)” value in the data set on THP1-ISG cells is “mostly non-toxic”.
Consider `[2H]C([2H])([2H])NC(=O)c1nnc(NC(=O)C2CC2)cc1Nc1cccc(-c2ncn(C)n2)c1OC` [BMS-986165, BMS986165 Tyk2-IN-4], for which, in data set [2], the “inhibitory effects, ranking among more than 30 compounds tested” value is recorded as “most significant inhibitory effects” and the “inhibitory effects on murine ISG system / induction of IRF” value is “significant inhibitory effects”.
As to `CNC(=O)c1cc(Oc2ccc(NC(=O)Nc3ccc(Cl)c(C(F)(F)F)c3)cc2)ccn1` [sorafinib, Sorafenib], the “toxicity in vitro (ATP activity)” value in the data set with THP1-ISG cells is given as “mostly non-toxic”.
As for `Cc1ccc(NC(=O)c2ccc(CN3CCN(C)CC3)cc2)cc1Nc1nccc(-c2cccnc2)n1` [imatinib, Imatinib/ Imatinib mesylate], the “toxicity in vitro (ATP activity)” value with THP1-ISG cells is on record as “mostly non-toxic”.
